# Test results from US20230233569A1 (Revolution Medicines, Inc., priority 2020, published 2023).
# Read-outs that look alike come from different tables or passages of the source.
# Assays:
# Test in all cases: Ras-Raf disruption / FRET / MOA assay (BRAF RBD)
# Type in all cases: biochemical
# [1] = biological target: NRAS G12C (Homo sapiens, UniProt P01111+P62937, G12C)
# Description: (§1) Disruption of […] Ras-binding Domain (BRAF^RBD) Interaction with K-Ras by Compounds of the Invention (also Called a FRET Assay or an MOA Assay)
# (§2) Note—The following protocol describes a procedure for monitoring disruption of K-Ras G12C (GMP-PNP) binding to BRAF^RBD by a compound of the invention. This protocol may also be executed substituting other Ras proteins or nucleotides, such as K-Ras G12D and K-Ras G13D.
# (§3) The purpose of this biochemical assay was to measure the ability of test compounds to facilitate ternary complex formation between a nucleotide-loaded K-Ras isoform and Cyclophilin A; the resulting ternary complex disrupts binding to a BRAF^RBD construct, inhibiting K-Ras signaling through a RAF effector. Data is reported as IC50 values.
# (§4) In assay buffer containing 25 mM HEPES pH 7.3, 0.002% Tween20, 0.1% BSA, 100 mM NaCl and 5 mM MgCl2, tagless Cyclophilin A, His6-K-Ras-GMPPNP, and GST-BRAF^RBD were combined in a 384-well assay plate at final concentrations of 25 μM, 12.5 nM, and 50 nM, respectively. Compound was present in plate wells as a 10-point 3-fold dilution series starting at a final concentration of 30 μM. After incubation at 25° C. for 3 hours, a mixture of anti-His Eu-W1024 and anti-GST allophycocyanin was then added to assay sample wells at final concentrations of 10 nM and 50 nM, respectively, and the reaction incubated for an additional 1.5 hours. […] Compounds that facilitate disruption of a K-Ras:RAF complex were identified as those eliciting a decrease in the TR-FRET ratio relative to DMSO control wells.
# [2] = biological target: KRAS G13D (Homo sapiens, UniProt P01116+P62937, G13D); conditions: with Cyclophilin A
# Description: as §1, §2, §3, §4
# [3] = biological target: KRAS G12V (Homo sapiens, UniProt P01116+P62937, G12V); conditions: with Cyclophilin A
# Description: as §1, §2, §3, §4
# [4] = biological target: KRAS G13C (Homo sapiens, UniProt P01116+P62937, G13C); conditions: with Cyclophilin A
# Description: as §1, §2, §3, §4
# [5] = biological target: KRAS G12D (Homo sapiens, UniProt P01116+P62937, G12D); conditions: with Cyclophilin A
# Description: as §1, §2, §3, §4
# [6] = biological target: KRAS WT (Homo sapiens, UniProt P01116+P62937); conditions: with Cyclophilin A
# Description: as §1, §2, §3, §4
# [7] = biological target: KRAS G12S (Homo sapiens, UniProt P01116+P62937, G12S); conditions: with Cyclophilin A
# Description: as §1, §2, §3, §4
# [8] = biological target: KRAS G12C (Homo sapiens, UniProt P01116+P62937, G12C); conditions: with Cyclophilin A
# Description: as §1, §2, §3, §4
# as §3, with “is” for “was”, “Ras” for “K-Ras”, “cyclophilin” for “Cyclophilin”, “effector.” for “effector. Data is reported as IC50 values.”
# In assay buffer containing 25 mM HEPES pH 7.3, 0.002% Tween20, 0.1% BSA, 100 mM NaCl and 5 mM MgCl2, tagless Cyclophilin A, His6-K-Ras-GMPPNP (or other Ras variant), and GST-BRAF^RBD are combined in a 384-well assay plate at final concentrations of 25 μM, 12.5 nM and 50 nM, respectively. Compound is present in plate wells as a 10-point 3-fold dilution series starting at a final concentration of 30 μM. After incubation at 25° C. for 3 hours, a mixture of Anti-His Eu-W1024 and anti-GST allophycocyanin is then added to assay sample wells at final concentrations of 10 nM and 50 nM, respectively, and the reaction incubated for an additional 1.5 hours. […] Compounds that facilitate disruption of a Ras:RAF complex are identified as those eliciting a decrease in the TR-FRET ratio relative to DMSO control wells.
# [9] = NRAS G12C, read-out: NRAS G12C FRET data IC50
# [10] = Ras-Raf disruption, read-out: KRAS G13D FRET data IC50
# [11] = Ras-Raf disruption, read-out: KRAS G12V FRET data IC50
# [12] = Ras-Raf disruption, read-out: KRAS G13C FRET data IC50
# [13] = Ras-Raf disruption, read-out: KRAS G12D FRET data IC50
# [14] = Ras-Raf disruption, read-out: KRAS WT FRET data IC50
# [15] = Ras-Raf disruption, read-out: KRAS G12S FRET data IC50
# [16] = Ras-Raf disruption, read-out: KRAS G12C FRET data IC50
# [17] = NRAS G12C FRET data IC50, NRAS G12C
# [18] = KRAS G13D FRET data IC50, Ras-Raf disruption
# [19] = KRAS G12V FRET data IC50, Ras-Raf disruption
# [20] = KRAS G13C FRET data IC50, Ras-Raf disruption
# [21] = KRAS G12D FRET data IC50, Ras-Raf disruption
# [22] = KRAS WT FRET data IC50, Ras-Raf disruption
# [23] = KRAS G12S FRET data IC50, Ras-Raf disruption
# [24] = KRAS G12C FRET data IC50, Ras-Raf disruption
# KRAS G12D, sequence (P01116 1-169 isoform P01116-2 G12D limits assumed): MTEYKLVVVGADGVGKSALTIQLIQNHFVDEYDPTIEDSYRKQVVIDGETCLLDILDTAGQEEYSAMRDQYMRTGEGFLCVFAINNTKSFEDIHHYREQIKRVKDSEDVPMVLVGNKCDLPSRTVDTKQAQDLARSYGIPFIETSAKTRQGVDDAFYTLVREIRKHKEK
# KRAS G12D, sequence (P62937 whole entry): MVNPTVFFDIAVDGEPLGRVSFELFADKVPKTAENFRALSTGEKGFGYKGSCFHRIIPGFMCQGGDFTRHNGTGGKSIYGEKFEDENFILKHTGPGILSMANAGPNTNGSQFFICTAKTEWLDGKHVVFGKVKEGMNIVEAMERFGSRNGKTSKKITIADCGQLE
# KRAS G12S, sequence (P01116 1-169 isoform P01116-2 G12S limits assumed): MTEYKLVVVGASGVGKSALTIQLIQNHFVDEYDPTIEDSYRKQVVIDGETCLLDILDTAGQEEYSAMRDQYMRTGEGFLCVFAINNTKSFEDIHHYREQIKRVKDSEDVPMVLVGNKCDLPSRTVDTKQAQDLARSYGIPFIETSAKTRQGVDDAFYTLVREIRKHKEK
# KRAS G12S, sequence (P62937 whole entry): as the sequence (P62937 whole entry) above
# KRAS WT, sequence (P01116 1-169 isoform P01116-2 limits assumed): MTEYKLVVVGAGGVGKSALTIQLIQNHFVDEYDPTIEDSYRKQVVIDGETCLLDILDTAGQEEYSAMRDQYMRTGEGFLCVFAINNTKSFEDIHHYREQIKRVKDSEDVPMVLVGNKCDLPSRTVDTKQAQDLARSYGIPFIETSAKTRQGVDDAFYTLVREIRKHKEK
# KRAS WT, sequence (P62937 whole entry): as the sequence (P62937 whole entry) above
# KRAS G13D, sequence (P01116 1-169 isoform P01116-2 G13D limits assumed): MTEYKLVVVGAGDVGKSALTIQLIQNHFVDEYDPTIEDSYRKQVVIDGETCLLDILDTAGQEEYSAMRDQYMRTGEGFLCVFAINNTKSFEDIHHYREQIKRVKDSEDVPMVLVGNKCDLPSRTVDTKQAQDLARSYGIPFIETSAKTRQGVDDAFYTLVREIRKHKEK
# KRAS G13D, sequence (P62937 whole entry): as the sequence (P62937 whole entry) above
# KRAS G13C, sequence (P01116 1-169 isoform P01116-2 G13C limits assumed): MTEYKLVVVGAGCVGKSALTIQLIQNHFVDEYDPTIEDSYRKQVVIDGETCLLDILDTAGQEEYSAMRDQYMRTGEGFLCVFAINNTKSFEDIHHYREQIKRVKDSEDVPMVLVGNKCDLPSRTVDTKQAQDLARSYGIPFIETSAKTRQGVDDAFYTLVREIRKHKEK
# KRAS G13C, sequence (P62937 whole entry): as the sequence (P62937 whole entry) above
# KRAS G12V, sequence (P01116 1-169 isoform P01116-2 G12V limits assumed): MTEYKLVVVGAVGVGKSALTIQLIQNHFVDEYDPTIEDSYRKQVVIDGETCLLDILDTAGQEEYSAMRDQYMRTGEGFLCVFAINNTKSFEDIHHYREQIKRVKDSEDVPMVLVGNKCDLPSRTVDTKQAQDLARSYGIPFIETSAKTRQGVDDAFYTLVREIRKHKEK
# KRAS G12V, sequence (P62937 whole entry): as the sequence (P62937 whole entry) above
# KRAS G12C, sequence (P01116 1-169 isoform P01116-2 G12C limits assumed): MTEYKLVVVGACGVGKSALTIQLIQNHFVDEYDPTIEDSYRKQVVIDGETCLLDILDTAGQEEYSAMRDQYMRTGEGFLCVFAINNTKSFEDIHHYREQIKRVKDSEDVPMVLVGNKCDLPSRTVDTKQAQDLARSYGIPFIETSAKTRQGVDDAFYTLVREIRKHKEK
# KRAS G12C, sequence (P62937 whole entry): as the sequence (P62937 whole entry) above
# NRAS G12C, sequence (P01111 whole entry G12C, the tested form may be a part): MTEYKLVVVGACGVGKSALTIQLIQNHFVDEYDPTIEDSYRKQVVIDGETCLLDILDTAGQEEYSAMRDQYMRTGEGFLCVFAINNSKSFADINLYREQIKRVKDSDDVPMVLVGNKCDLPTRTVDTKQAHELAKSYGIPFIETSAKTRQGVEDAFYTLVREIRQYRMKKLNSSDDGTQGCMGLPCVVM
# NRAS G12C, sequence (P62937 whole entry, the tested form may be a part): as the sequence (P62937 whole entry) above
SMILES,"IC50 [1, 9] [nM]","IC50 [2, 10] [nM]","IC50 [3, 11] [nM]","IC50 [4, 12] [nM]","IC50 [5, 13] [nM]","IC50 [6, 14] [nM]","IC50 [7, 15] [nM]","IC50 [8, 16] [nM]","IC50 [1, 17] [nM]","IC50 [2, 18] [nM]","IC50 [3, 19] [nM]","IC50 [4, 20] [nM]","IC50 [5, 21] [nM]","IC50 [6, 22] [nM]","IC50 [7, 23] [nM]","IC50 [8, 24] [nM]"
CCn1c(-c2cccnc2[C@H](C)OC)c2c3cc(ccc31)-c1cc(O)cc(c1)C[C@H](NC(=O)[C@H](C(C)C)N1CCC3(CCN(C(=O)[C@@H]4CN4)C3)C1=O)C(=O)N1CCC[C@H](N1)C(=O)OCC(C)(C)C2 (some centres unmarked) [Example 113],< 10,10 to 100,10 to 100,10 to 100,10 to 100,10 to 100,10 to 100,< 10,–,–,–,–,–,–,–,–
CCn1c(-c2cccnc2[C@H](C)OC)c2c3cc(ccc31)-c1cccc(c1)C[C@H](NC(=O)[C@H](C(C)C)N(C)C(=O)CCN=C=NCc1ccccc1OC)C(=O)N1CCC[C@H](N1)C(=O)OCC(C)(C)C2 [Example 73],10 to 100,1000 to 10000,> 10000,1000 to 10000,100 to 1000,1000 to 10000,1000 to 10000,10 to 100,–,–,–,–,–,–,–,–
"CCn1c(-c2cccnc2[C@H](C)OC)c2c3cc(ccc31)-c1cc(O)cc(c1)C[C@H](NC(=O)[C@H](C(C)C)N(C)C(=O)N1CCCN(C(=O)[C@H]3CN3)CC1)C(=O)N1CCC[C@H](N1)C(=O)OCC(C)(C)C2 (atropisomer, axis not shown) [Example 190]",10 to 100,100 to 1000,10 to 100,10 to 100,100 to 1000,10 to 100,10 to 100,< 10,–,–,–,–,–,–,–,–
CCn1c(-c2cccnc2[C@H](C)OC)c2c3cc(ccc31)-c1cc(O)cc(c1)C[C@H](NC(=O)[C@H](C(C)C)N1CC[C@@H](NC(=O)[C@H]3CN3)C1=O)C(=O)N1CCC[C@H](N1)C(=O)OCC(C)(C)C2 [Example 130],–,–,–,–,–,–,–,–,10 to 100,10 to 100,100 to 1000,10 to 100,100 to 1000,10 to 100,10 to 100,10 to 100
CCn1c(-c2cccnc2[C@H](C)OC)c2c3cc(ccc31)-c1cc(O)cc(c1)C[C@H](NC(=O)[C@H](C(C)C)N(C)C(=O)N1CCCN(C(=O)[C@@H]3CN3)CC1)C(=O)N1CCC[C@H](N1)C(=O)OCC(C)(C)C2 [Example 173],10 to 100,10 to 100,10 to 100,10 to 100,10 to 100,10 to 100,10 to 100,10 to 100,–,–,–,–,–,–,–,–
CCn1c(-c2cccnc2[C@H](C)OC)c2c3cc(ccc31)-c1cccc(c1)C[C@H](NC(=O)[C@H](C(C)C)N(C)C(=O)[C@H]1C[C@H](N=C=NCCOC)C1)C(=O)N1CCC[C@H](N1)C(=O)OCC(C)(C)C2 [Example 78],10 to 100,> 10000,1000 to 10000,10 to 100,1000 to 10000,1000 to 10000,1000 to 10000,10 to 100,–,–,–,–,–,–,–,–
CCn1c(-c2cccnc2[C@H](C)OC)c2c3cc(ccc31)-c1csc(n1)C[C@H](NC(=O)[C@H](C1CCCC1)N(C)C(=O)CN(C)C(=O)[C@H]1CN1)C(=O)N1CCC[C@H](N1)C(=O)OCC(C)(C)C2 [Example 132],–,–,–,–,–,–,–,–,100 to 1000,1000 to 10000,1000 to 10000,1000 to 10000,1000 to 10000,1000 to 10000,1000 to 10000,100 to 1000
